The results in this text go back to ChEMBL document CHEMBL1921713, “A simple synthesis of APM ([p-(N-acrylamino)-phenyl]mercuric chloride), a useful tool for the analysis of thiolated biomolecules” (Bioorg Med Chem Lett, 2011).

Activity calls are given as the source filed them. The rule behind the calls is not given here.

What all share (type): nucleic-acid assay
In assay [1] the test system is Nucleic Acid. Description: Binding affinity to Schizosaccharomyces pombe Non-thiolated Met-tRNA using 32P-labelled probe by PAGE analysis.
In assay [2] the test system is Nucleic Acid. Description: Binding affinity to Schizosaccharomyces pombe Thiolated Lys-tRNA using 32P-labelled probe by PAGE analysis.
Assay [3] concerns Nucleic Acid. Briefly: Binding affinity to ctu1-deficient Schizosaccharomyces pombe Lys-tRNA using 32P-labelled probe by PAGE analysis.

Take “[p-(N-acrylamino)-phenyl]mercuric chloride”: the outcome in assay [1] and in assay [3] was inactive. Moreover, the outcome in assay [2] was Active.
